Each block holds one compound with its values, some of them ahead of it.
Assays:
TRPV1 = TRPV1 (Homo sapiens, UniProt Q8NER1); conditions: cited from earlier work
TRPA1 [1] = molecular target: T1, TRPA1 (Mus musculus, UniProt Q8BLA8); test: Barrier recovery after tape stripping, measured by transepidermal water loss (TEWL); format: in vivo, hairless mice; conditions: for Barrier recovery (TEWL recovery rate): local application of 100 μl of 0.5 mM agonist solution immediately after tape stripping
T1 construct: TRPA1 in mouse epidermis was determined to positively immunostained; from tissue; host or cells: skin (epidermis) of living male HR-1 hairless mice
Description: Male hairless mice age 7 to 10 weeks (HR-1, Hoshino Laboratory Animals, Inc., Japan) were used in all experiments. Measurement of skin barrier function, barrier destruction and application of test samples were carried out while the animals were anesthetized with Nembutal.
Permeability barrier function was evaluated on the basis of measurement results for transepidermal water loss (TEWL) obtained using an electrical moisture analyzer (Meeco Inc.) in the manner previously described (Denda, et al., J. Invest. Dermatol., 111, 858-863 (1998): Non-Patent Document 10). In the barrier recovery experiment, treatment was carried out on the animals consisting of repeatedly carrying out tape stripping on skin on both sides of the abdomen until TEWL reached 7 to 10 mg/cm^2/hr. The effects of each treatment were investigated by measuring at two locations on the sides of the abdomen using four mice. Next, TEWL values at the same sites were measured at 1, 3, 6 and 24 hours after barrier destruction. In order to avoid the effects of circadian rhythm, the speed of barrier recovery was investigated immediately after destroying the skin barrier between the hours of 7:00 AM and 8:00 AM. The results for barrier recovery were expressed in terms of recovery rate (%). This is because the degree of barrier destruction varies from day to day. Recovery rate was calculated for each mouse using the following formula:
[(TEWL immediately after barrier destruction−TEWL at indicated time)/(TEWL immediately after barrier destruction−TEWL basal value)]×100%
The effects of TRPA1 agonist on undamaged skin of hairless mice were first evaluated. The skin permeability barrier was destroyed by tape stripping followed immediately thereafter by application of 100 μl of agonist solution. […] Next, the surface of the skin on one side of the abdomen was chilled (10 to 15° C.) for 1 minute using a cold insulator. The other side of the abdomen was maintained at 35 to 36° C. using a heating pad. The temperatures of both sides of the abdomen were monitored with a thermometer (Data Logger Thermometer MT-309, Mother Tool Co., Ltd.).

TRPV4 = TRPV4 (Homo sapiens, UniProt Q9HBA0); conditions: common TRP inhibitor; TRPV4 activated by heat (36 to 40° C.) or agonist; cited from earlier work
TRPA1 [2] = molecular target: T1, TRPA1; test: Electron microscopy of lamellar body secretion between stratum corneum and stratum granulosum; format: in vivo, hairless mice; conditions: pretreatment with antagonist; short exposure to low temperature; FIG. 4c

T1 sequence (Q8BLA8 whole entry): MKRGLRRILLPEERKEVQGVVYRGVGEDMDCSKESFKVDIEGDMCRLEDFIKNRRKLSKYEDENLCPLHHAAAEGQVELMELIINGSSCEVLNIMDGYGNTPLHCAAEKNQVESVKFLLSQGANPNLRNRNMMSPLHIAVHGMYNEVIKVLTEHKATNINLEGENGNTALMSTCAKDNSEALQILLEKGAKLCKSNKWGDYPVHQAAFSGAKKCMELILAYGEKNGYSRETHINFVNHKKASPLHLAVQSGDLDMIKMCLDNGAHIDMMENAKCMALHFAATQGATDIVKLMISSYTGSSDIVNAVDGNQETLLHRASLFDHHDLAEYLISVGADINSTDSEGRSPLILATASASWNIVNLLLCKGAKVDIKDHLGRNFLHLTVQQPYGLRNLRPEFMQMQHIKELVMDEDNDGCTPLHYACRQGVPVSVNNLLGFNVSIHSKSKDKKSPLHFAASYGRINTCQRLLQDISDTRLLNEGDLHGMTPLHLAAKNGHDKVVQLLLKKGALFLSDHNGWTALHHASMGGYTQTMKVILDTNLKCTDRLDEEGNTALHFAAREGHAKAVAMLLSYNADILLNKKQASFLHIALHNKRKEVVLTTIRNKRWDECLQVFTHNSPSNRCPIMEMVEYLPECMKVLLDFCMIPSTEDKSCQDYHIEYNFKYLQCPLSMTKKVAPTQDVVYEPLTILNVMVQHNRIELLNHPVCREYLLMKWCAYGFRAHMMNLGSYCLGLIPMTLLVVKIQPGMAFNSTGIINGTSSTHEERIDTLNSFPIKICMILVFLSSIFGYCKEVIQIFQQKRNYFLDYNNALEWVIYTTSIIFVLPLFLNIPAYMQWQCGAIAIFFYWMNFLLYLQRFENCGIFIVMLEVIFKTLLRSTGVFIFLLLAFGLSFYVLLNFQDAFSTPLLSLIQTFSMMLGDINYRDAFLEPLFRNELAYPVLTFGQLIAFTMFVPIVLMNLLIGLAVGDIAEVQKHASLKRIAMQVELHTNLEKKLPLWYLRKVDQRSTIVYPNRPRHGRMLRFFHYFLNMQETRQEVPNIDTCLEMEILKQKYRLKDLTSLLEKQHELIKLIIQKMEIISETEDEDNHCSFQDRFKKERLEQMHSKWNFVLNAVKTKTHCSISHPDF
Sequence of TRPV1 (Q8NER1 whole entry, species assumed): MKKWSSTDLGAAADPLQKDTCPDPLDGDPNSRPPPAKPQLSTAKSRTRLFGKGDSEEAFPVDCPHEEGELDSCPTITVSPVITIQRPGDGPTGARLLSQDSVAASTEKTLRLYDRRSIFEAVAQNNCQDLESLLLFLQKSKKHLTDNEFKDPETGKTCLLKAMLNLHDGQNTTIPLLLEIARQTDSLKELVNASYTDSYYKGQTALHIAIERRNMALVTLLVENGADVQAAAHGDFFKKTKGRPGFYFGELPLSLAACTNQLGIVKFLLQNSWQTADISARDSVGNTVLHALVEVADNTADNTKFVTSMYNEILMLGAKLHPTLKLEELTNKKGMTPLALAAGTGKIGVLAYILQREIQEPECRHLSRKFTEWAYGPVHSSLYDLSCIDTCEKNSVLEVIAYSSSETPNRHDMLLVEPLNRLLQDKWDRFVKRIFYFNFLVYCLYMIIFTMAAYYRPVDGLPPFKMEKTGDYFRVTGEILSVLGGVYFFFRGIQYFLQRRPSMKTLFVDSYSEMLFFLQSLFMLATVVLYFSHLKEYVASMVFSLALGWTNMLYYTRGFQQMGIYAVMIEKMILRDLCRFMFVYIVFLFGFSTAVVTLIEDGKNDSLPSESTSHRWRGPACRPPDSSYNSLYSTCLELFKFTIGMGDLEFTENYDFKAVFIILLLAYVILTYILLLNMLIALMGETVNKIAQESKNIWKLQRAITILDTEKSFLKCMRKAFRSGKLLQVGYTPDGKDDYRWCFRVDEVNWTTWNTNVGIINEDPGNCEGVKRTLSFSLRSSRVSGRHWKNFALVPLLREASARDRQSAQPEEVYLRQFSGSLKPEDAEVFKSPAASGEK
Sequence of TRPV4 (Q9HBA0 whole entry, species assumed): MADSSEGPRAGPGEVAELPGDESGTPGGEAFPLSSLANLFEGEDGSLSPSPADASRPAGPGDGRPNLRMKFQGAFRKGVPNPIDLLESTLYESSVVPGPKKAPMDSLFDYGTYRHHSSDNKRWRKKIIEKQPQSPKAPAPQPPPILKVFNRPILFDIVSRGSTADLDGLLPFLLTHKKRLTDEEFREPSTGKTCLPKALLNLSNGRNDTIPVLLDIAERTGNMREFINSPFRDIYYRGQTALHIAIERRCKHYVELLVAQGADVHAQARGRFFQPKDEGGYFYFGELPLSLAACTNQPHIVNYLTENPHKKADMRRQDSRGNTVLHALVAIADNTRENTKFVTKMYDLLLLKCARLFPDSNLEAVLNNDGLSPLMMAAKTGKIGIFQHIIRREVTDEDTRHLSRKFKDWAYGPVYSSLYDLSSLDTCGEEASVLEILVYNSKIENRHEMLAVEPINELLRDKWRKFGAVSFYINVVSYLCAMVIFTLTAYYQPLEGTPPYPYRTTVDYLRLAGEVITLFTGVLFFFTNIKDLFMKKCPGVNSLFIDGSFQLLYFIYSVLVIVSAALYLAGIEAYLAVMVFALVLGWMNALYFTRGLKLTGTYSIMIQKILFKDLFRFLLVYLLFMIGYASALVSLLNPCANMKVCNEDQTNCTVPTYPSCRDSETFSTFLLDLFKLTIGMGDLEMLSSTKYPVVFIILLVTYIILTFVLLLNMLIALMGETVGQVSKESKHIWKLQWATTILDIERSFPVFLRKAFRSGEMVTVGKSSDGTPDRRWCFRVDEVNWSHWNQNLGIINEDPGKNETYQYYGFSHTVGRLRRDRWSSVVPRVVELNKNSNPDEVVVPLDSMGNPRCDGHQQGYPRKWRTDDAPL

SMILES: Oc1cc2c(cc1O)CN(C(=S)NCCc1ccc(Cl)cc1)CCC2 [capsazepine]
Effect on delay of barrier repair caused by TRPV1 activation (TRPV1; TRPV1 antagonist): inhibited

SMILES: C=CCN=C=S [allyl isothiocyanate]
Barrier recovery (TEWL recovery rate) (TRPA1 [1]; FIG. 1): accelerated

SMILES: COc1cc(CNC(=O)CCCC/C=C/C(C)C)ccc1O [capsaicin]
Repair of the skin barrier (TRPV1; TRPV1 activated after destroying the skin barrier): delayed

SMILES: O=CC=Cc1ccccc1 [cinnamaldehyde]
Barrier recovery (TEWL recovery rate) (TRPA1 [1]; FIG. 1): accelerated

SMILES: N.N.N.N.N.N.N.N.N.N.N.N.N.N.[Cl-].[Cl-].[Cl-].[Cl-].[Cl-].[Cl-].[O-2].[O-2].[Ru+3].[Ru+3].[Ru+4] [ruthenium red]
Effect on barrier repair acceleration by TRPV4 activation (TRPV4): inhibited

Effect on low-temperature-accelerated secretion of lamellar bodies (TRPA1 [2]): inhibited | Effect on barrier recovery acceleration by allyl isothiocyanate or cinnamaldehyde (TRPA1 [1]; pretreatment with 50 μM antagonist, FIG. 1): inhibited | Effect on barrier recovery acceleration by 1 minute of cooling (10 to 15° C.) (TRPA1 [1]; pretreatment with antagonist, FIG. 2): inhibited
SMILES: CC(C)c1ccc(NC(=O)Cn2cnc3c2c(=O)n(C)c(=O)n3C)cc1 [HC030031, 2-(1,3-dimethyl-2,6-dioxo-1,2,3,6-tetrahydro-7H-purin-7-yl)-N-(4-isopropylphenyl)acetoamide]
